# pIC50: −log10 of the molar value.
# Biological target: Hypoxia-inducible factor 1-alpha (Homo sapiens, UniProt Q16665)
# Test: Inhibition of HIF1alpha transcriptional activity in human HeLa cells transfected with HRE-firefly luciferase and cytomegalovirus-promoter expressing Renilla luciferase incubated for 12 hrs under 1% O2 condition by dual luciferase reporter gene assay
# Chain of Hypoxia-inducible factor 1-alpha (Q16665 whole entry): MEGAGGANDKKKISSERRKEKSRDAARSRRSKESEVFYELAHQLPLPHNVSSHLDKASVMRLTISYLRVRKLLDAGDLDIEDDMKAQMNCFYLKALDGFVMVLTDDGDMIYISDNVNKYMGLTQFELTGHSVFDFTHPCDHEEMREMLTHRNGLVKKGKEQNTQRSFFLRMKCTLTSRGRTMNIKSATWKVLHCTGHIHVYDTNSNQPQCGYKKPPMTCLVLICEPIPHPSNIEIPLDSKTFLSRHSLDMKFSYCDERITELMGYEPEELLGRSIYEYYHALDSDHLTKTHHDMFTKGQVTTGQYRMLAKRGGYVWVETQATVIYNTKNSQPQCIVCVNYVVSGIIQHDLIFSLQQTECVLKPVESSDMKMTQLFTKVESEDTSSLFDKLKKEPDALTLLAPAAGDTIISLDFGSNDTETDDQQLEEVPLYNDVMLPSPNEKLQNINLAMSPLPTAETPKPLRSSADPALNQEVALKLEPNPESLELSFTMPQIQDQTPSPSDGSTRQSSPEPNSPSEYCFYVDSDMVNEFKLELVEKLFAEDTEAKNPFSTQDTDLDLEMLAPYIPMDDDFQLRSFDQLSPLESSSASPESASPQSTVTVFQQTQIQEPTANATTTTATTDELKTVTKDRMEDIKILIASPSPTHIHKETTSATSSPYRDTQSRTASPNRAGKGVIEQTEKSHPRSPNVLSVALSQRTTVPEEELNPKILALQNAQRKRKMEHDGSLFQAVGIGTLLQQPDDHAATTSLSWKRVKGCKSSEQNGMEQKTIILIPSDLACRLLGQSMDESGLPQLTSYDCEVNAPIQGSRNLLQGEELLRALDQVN
row,pIC50,Structure (SMILES)
1,6.41,O=C1c2ccccc2-c2cnn(-c3ccc(O)cc3)c21
2,4.64,O=C1c2ccccc2-c2cnn(-c3ccc(C(F)(F)F)cc3)c21
3,6.21,COc1ccc(-n2ncc3c2C(=O)c2ccccc2-3)cc1
4,6.10,Cc1ccc(-n2ncc3c2C(=O)c2ccccc2-3)cc1
5,5.85,O=C1c2ccccc2-c2cnn(-c3ccccc3)c21

# The remaining lines, values behind:
row,Structure (SMILES),pIC50
1,O=C1c2ccccc2-c2cn[nH]c21,< 4.52
2,Cn1ncc2c1C(=O)c1ccccc1-2,5.06
3,Cc1nn(-c2ccccc2)c2c1-c1ccccc1C2=O,5.32
4,O=C1c2ncccc2-c2cnn(-c3ccccc3)c21,5.00

# — BindingDB's records for doi:10.1016/j.bmc.2019.115207 (Tokyo Institute of Innovative Research, 2020)
